Patent US6699656B2, “Treatment and prevention of HIV infection by administration of derivatives of human chorionic gonadotropin” (University of Maryland Biotechnology Institute, priority 1996, dated 2004)
Bridges are numbered along the chain shown (N, C = ends). Where no end group is shown, it is not given here.

Legend:
[1] = test system: Kaposi's Sarcoma; conditions: literature; cited from earlier work
[2] = test system: HIV-1
[3] = test system: KS Y-1 tumors; experiment: KS Y-1 tumors induced in immunodeficient mice; format: in vivo; conditions: treatment from one week after tumor cell injection; peptides 10 μg daily 5 days, hCG APL 100 IU s.c. daily 7 days
Method: The effects of the peptides on KS tumor cells were also evaluated in vivo in the mouse model. To induce KS tumors in the mice, 1×10^6/ml KS Y-1 cells in 50 μl PBS or saline were injected subcutaneously into immunodeficient mice (beige-XID-BNX mice). […] Methods for detection of apoptosis (from tissue biopsies) were used, as described in Lunardi-Iskandar, Y. et al.(1995, Nature 375:64-68). Briefly, the samples were stained in situ for the presence of cells with DNA fragmentation. Tissue slides from formalin-fixed tumors were treated with terminal deoxynucleotide transferase for extension of DNA ends (hydroxyl 3′) and incorporation of digoxigenin-11-dUTP according to the manufacturer's instructions (Oncor, Gaithersburg, Md.). Anti-digoxigenin antibody conjugated with the enzyme peroxidase allowed detection of apoptotic cells that stain brown whereas viable cells stain blue.

[4] = test system: hematopoietic progenitor cells; experiment: Hematopoietic progenitor colony assays (CFU-MIX, BFU-e, CFU-GM); format: cell-based; conditions: bone marrow and cord blood; hCG 200 IU/ml, peptides and subunits 100 μg/ml; 10 days
Source text: Hematopoietic progenitor cells (2×10^5 cell/ml) were isolated from normal bone marrow and cord blood and seeded in methylcellulose. […] Aggregates containing more than 50 cells after 10 days of culture were counted as colonies.

[5] = test system: KS Y-1 or KS-SLK cells; experiment: KS clonogenic assay; format: cell-based, human; conditions: 2 KS cell lines; peptides 50 nmoles/ml, CR127 2 nmoles/ml; 10 days
Method: Briefly, the KS Y-1 cells were obtained from mononuclear cells isolated from pleural effusion of an AIDS patient with KS involving the lungs. After the depletion of T lymphocytes, monocytes/macrophages and fibroblasts by the cytotoxicity method, using monoclonal antibodies against CD2, CD3, CD4, CD8, CD10 and CD14 membrane antigens and baby rabbit complement, the cells were cultured in the absence of exogenous growth factors to select for transformed cells.

[6] = test system: HIV-1; conditions: p24 antigen days 3 to 10; peptides 0.05 to 50 nmoles/ml, hCG 0.01 to 1,000 IU, native β-hCG 100 to 1,000 μg
Method: Sequences of the peptides are as follows:
HIV-1 infected cells were treated with the above preparations and the virus was measured.

[7] = test system: HIV-1 transgenic mice; format: in vivo

| Compound | effect on KS Y-1 tumors in mice (cell death, thin sections) [3] | growth of hematopoietic progenitors (colonies) [4] | anti-KS effect in clonogenic assays (number of colonies) [5] | inhibition of HIV-1 infection/replication in acutely infected cells [6] | also measured |
| --- | --- | --- | --- | --- | --- |
| β-hCG peptide 109-145: β-hCG carboxy-terminal peptide of amino acids 109-145 (TCDDPRFQDSSSSKAPPPSLPSPSRLPGPSDTPILPQ) |  |  |  |  | efficacy in the treatment of Kaposi's Sarcoma [1]: efficacious |
| CC(C)(C)NC(=O)[C@@H]1CN(Cc2cccnc2)CCN1C[C@@H](O)C[C@@H](Cc1ccccc1)C(=O)N[C@H]1c2ccccc2C[C@H]1O [indinavir (Crixivan)] |  |  |  |  | viral load, patient PH-JPV ([2]; indinavir added after hCG induced pulmonary response): undetectable viral load |
| CC(C)c1nc(CN(C)C(=O)N[C@H](C(=O)N[C@@H](Cc2ccccc2)C[C@H](O)[C@H](Cc2ccccc2)NC(=O)OCc2cncs2)C(C)C)cs1 [Ritonavir] |  |  |  |  | CD4+ T cells, patient PH-SPBE ([2]; Ritonavir added at 22 weeks to ongoing hCG treatment): over 300 mm^3 |
| β-hCG peptide 134-144: β-hCG peptide of amino acids 134-144 | inactive | little or no effects |  |  |  |
| β-hCG peptide 74-95: β-hCG peptide of amino acids 74-95 (RGVNPVVSYAVALSCQCALCRR; UniProt P0DN86 94-115, looked up, fragment) | inactive | little or no effects | little or no inhibition | little or no effect |  |
| β-hCG peptide 123-145: β-hCG peptide of amino acids 123-145 | inactive | little or no effects |  |  |  |
| β-hCG peptide 34-49: β-hCG peptide of amino acids 34-49 (CAGYCPTMTRVLQGVL; UniProt P0DN86 54-69, looked up, fragment) | inactive | little or no effects | little or no inhibition |  |  |
| Cys Leu Gln Gly Val Leu Pro Ala Leu Pro Gln Val Val Cys (CLQGVLPALPQVVC; disulfide 1-14 (inferred)) [Satellin A2 peptide] | extensive cell death | directly promoted | strongest anti-tumor effects | most active |  |
| β-hCG peptide 55-90: β-hCG peptide 55-90, forms the β-core (VVCNYRDVRFESIRLPGCPRGVNPVVSYAVALSCQC; UniProt P0DN86 75-110, looked up, fragment) | slight activity |  |  |  |  |
| Leu Gln Dab(Pro) Val Leu Pro Dab(Pro) Leu Pro Gln Val Val Cys [branched β-hCG 45-57] |  |  |  |  | hyperkeratosis of the skin / histology ([7]; HIV-1 transgenic mice): normal histology; growth retardation and cachexia ([7]; HIV-1 transgenic mice, branched peptide 10 μg to mothers s.c. daily for 10 days): reversal; survival ([7]; all untreated mice died within 10 days, 10 μg to mothers s.c. daily for 10 days): survived; gp120 and nef protein by antibody staining ([7]; pups, 10 μg to mothers s.c. daily for 10 days): down regulation |
| β-hCG peptide 57-93: β-hCG peptide of amino acids 57-93 (CNYRDVRFESIRLPGCPRGVNPVVSYAVALSCQCALC; UniProt P0DN86 77-113, looked up, fragment) | inactive | little or no effects | little or no inhibition |  |  |
| β-hCG peptide 93-100: β-hCG peptide of amino acids 93-100 (CRRSTTDC; UniProt P0DN86 113-120, looked up, fragment) | inactive |  |  |  |  |
| β-hCG peptide 38-57: β-hCG peptide of amino acids 38-57, overlaps satellin A1 (CPTMTRVLQGVLPALPQVVC; UniProt P0DN86 58-77, looked up, fragment) | slight activity | little or no effects | little or no inhibition |  |  |
| α-hCG peptide 88-92: α-hCG peptide of amino acids 88-92 (YYHKS; UniProt P01215 112-116, looked up, fragment) | inactive | little or no effects | little or no inhibition | little or no effect |  |
| β-hCG peptide 6-16: β-hCG peptide of amino acids 6-16 (RPRCRPINATL; UniProt P0DN86 26-36, looked up, fragment) | inactive | little or no effects | little or no inhibition | little or no effect |  |
| β-hCG peptide 100-110: β-hCG peptide of amino acids 100-110 (CGGPKDHPLTC; UniProt P0DN86 120-130, looked up, fragment) | inactive | little or no effects | little or no inhibition |  |  |
| β-hCG peptide 7-40: β-hCG peptide of amino acids 7-40 (PRCRPINATLAVEKEGCPVCITVNTTICAGYCPT; UniProt P0DN86 27-60, looked up, fragment) |  | little or no effects | little or no inhibition |  |  |
| β-hCG peptide 6-40: β-hCG peptide 6-40, forms the β-core (RPRCRPINATLAVEKEGCPVCITVNTTICAGYCPT; UniProt P0DN86 26-60, looked up, fragment) | slight activity |  |  |  |  |
| TCDDPRFQDSS [β-hCG peptide 109-119] |  | directly promoted | strongest anti-tumor effects | active | efficacy in the treatment of Kaposi's Sarcoma [1]: efficacious |
| LQGVLPALPQVVC [β-hCG peptide 45-57] | extensive cell death | directly promoted | strongest anti-tumor effects | most active |  |
